Measurements reported in US20030161893A1, “PTPase inhibitors and methods of using the same” (priority 2001, published 2003).

Tests used:
GSTm8 = test: In vitro PTPase assay, GSTm8; assay type: biochemical; conditions: 3-4 μg/ml or 10-100 μg/ml
PRL-3 = molecular target: T1, PRL-3 (Homo sapiens, UniProt O75365); test: In vitro PTPase assay, recombinant PRL-3; assay type: biochemical; conditions: 0.1-100 μg/ml
T1 construct: cDNAs of human PRL-1, PRL-2 and PRL-3 coding region were derived by RT-PCR from H9 cells; made in house; host or cells: DH5a bacteria (E. coli)
Description: Sodium stibogluconate, suramin, sodium orth ovanadate and GST fusion protein of SHP-1 have been described previously (Pathak et al., J. Imumol. 167, 3391 (2001)). Meglumine antimonate was obtained from Aventis. cDNAs of human PRL-1, PRL-2 and PRL-3 coding region were derived by RT-PCR from H9 cells (Safai, et al., Lancet 1, 1438 (1984)) and inserted in frame into the pGEX vector. cDNA of PRL-1R86 was generated by recombinant DNA technique using PRL-1 cDNA as template following established procedures (Jiao, et al., Mol. Cell. Biol. 16, 6985 (1996)). GST fusion proteins of the PRL phosphatases were prepared from DH5a bacteria transformed with the pGEX fusion protein constructs as described previously (Yi, et al., Mol. Cell. Biol. 12, 836 (1992)). cDNAs encoding the PRLs tagged at the N-termini with the Flag epitope (Castrucci, et al., J. Virol. 66, 4647 (1992)) were generated via recombinant DNA technique, sequenced to confirm their identities and cloned into the pBabepuro vector (Yang, et al., Blood 91, 3746 (1998)). Anti-Flag monoclonal antibody (M2, Sigma) was purchased from a commercial source. A synthetic phosphotyrosine peptide (Arg-Arg-Leu-Ile-Glu-Asp-Ala-Gle-Tyr-Ala-Ala-Arg-Gly (SEQ ID NO: 3), wherein the tyrosine is phosphorylated; UBI) and DiFMUP (6, 8-difluoro-4-methylumbelliferyl phosphate, Molecular Probes) were purchased as substrates for PTPase assays.
In vitro PTPase assays were used to determine the effects of compounds on recombinant PTPases, following established procedures using a synthetic phosphotyrosine peptide or DiFMUP as the substrate (Pathak et al., J. Imumol. 167, 3391 (2001)). Briefly, individual PTPases (0.1 μg/reaction) in 50 μL of PTPase buffer (50 mM Tris, pH 7.4) were incubated at 22° C. for 10 minutes or as indicated in the absence or presence of inhibitory compounds. Substrates (0.2 mM phosphotyrosine peptide) were then added and allowed to react at 22° C. for 18 hrs. PTPase activity of individual reactions was measured by adding 100 μL of malachite green solution (UBI) and then quantifying the amounts of free phosphate cleaved by the PTPase from the peptide substrate by spectrometry (OD660 nm). PTPase assays using DiFMUP as a substrate were conducted following a previously described procedure (Matter, et al., Biochem. Biophys. Res. Comm. 283, 1061 (2001)). Relative PTPase activities were calculated based on the formula: (PTPase activity in the presence of an inhibitory compound/PTPase activity in the absence of the compound)×100%. To assess the reversibility of PTPase inhibition, GST fusion proteins of the PTPases bound on glutathione beads (Pharmacia) were pre-incubated with cold Tris buffer (50 mM Tris, pH 7.0) or Tris buffer containing the inhibitor at 4° C. for 30 minutes. The beads were then washed three times in cold Tris buffer or not washed prior to subjecting to in vitro PTPase assays.

SHP-1 = molecular target: T2, SHP-1 (Mus musculus, UniProt P29351); test: In vitro PTPase assay, GST/SHP-1 fusion protein; assay type: biochemical; conditions: 3-4 μg/ml or 10-100 μg/ml
T2 construct: made in house
Procedure: In vitro PTPase activities were measured using the commercial protein tyrosine phosphatase assay kit (Upstate Biotechnology, Inc. (“UBI”)) following established procedure known to one of skill in the art. […] 100 μl of Malachite Green solution was added and incubated for 5 minutes, and the absorbance at 660 nm was measured after 5 minutes.
The beads were then either subjected to in vitro PTPase assays or washed 3 times in Tris buffer then subjected to in vitro PTPase assays.
Briefly, individual PTPases (0.1 μg/reaction) in 50 μL of PTPase buffer (50 mM Tris, pH 7.4) were incubated at 22° C. for 10 minutes or as indicated in the absence or presence of inhibitory compounds. […] […] […] Relative PTPase activities were calculated based on the formula: (PTPase activity in the presence of an inhibitory compound/PTPase activity in the absence of the compound)×100%. To assess the reversibility of PTPase inhibition, GST fusion proteins of the PTPases bound on glutathione beads (Pharmacia) were pre-incubated with cold Tris buffer (50 mM Tris, pH 7.0) or Tris buffer containing the inhibitor at 4° C. for 30 minutes. The beads were then washed three times in cold Tris buffer or not washed prior to subjecting to in vitro PTPase assays.

MKP1 = molecular target: T3, MKP1 (Homo sapiens, UniProt P28562); test: In vitro PTPase assay, GST/MKP1 fusion protein; assay type: biochemical
T3 construct: a pGEX construct containing the coding region of MKP1 cDNA derived by RT-PCR; made in house; host or cells: DH5a bacteria (E. coli)
T3 sequence (P28562 1-367): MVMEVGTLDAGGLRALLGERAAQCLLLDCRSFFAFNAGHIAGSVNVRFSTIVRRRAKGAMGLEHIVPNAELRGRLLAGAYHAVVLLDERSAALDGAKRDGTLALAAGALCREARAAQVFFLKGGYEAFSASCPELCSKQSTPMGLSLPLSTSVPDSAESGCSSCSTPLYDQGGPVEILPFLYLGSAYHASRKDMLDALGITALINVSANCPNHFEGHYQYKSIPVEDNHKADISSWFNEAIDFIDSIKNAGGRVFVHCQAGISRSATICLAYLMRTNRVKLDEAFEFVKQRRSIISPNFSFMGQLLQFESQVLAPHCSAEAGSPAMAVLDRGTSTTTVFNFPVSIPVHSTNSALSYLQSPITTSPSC

PRL-2 = molecular target: T4, PRL-2 (Homo sapiens, UniProt Q12974); test: In vitro PTPase assay, recombinant PRL-2; assay type: biochemical
T4 construct: cDNAs of human PRL-1, PRL-2 and PRL-3 coding region were derived by RT-PCR from H9 cells; made in house; host or cells: DH5a bacteria (E. coli)
Description: (§1) Sodium stibogluconate, suramin, sodium orth ovanadate and GST fusion protein of SHP-1 have been described previously (Pathak et al., J. Imumol. 167, 3391 (2001)). Meglumine antimonate was obtained from Aventis. cDNAs of human PRL-1, PRL-2 and PRL-3 coding region were derived by RT-PCR from H9 cells (Safai, et al., Lancet 1, 1438 (1984)) and inserted in frame into the pGEX vector. cDNA of PRL-1R86 was generated by recombinant DNA technique using PRL-1 cDNA as template following established procedures (Jiao, et al., Mol. Cell. Biol. 16, 6985 (1996)). […]
(§2) In vitro PTPase assays were used to determine the effects of compounds on recombinant PTPases, following established procedures using a synthetic phosphotyrosine peptide or DiFMUP as the substrate (Pathak et al., J. Imumol. 167, 3391 (2001)). […] PTPase activity of individual reactions was measured by adding 100 μL of malachite green solution (UBI) and then quantifying the amounts of free phosphate cleaved by the PTPase from the peptide substrate by spectrometry (OD660 nm). […] Relative PTPase activities were calculated based on the formula: (PTPase activity in the presence of an inhibitory compound/PTPase activity in the absence of the compound)×100%. […]

WM9 cells = test: Cell proliferation assay (MTT), WM9 melanoma cells; assay type: cell-based, human
Procedure: For cell proliferation assays, cells were grown in 10% FCS culture medium containing various amounts of IFNs and/or sodium stibogluconate in 96 well plates and cultured at 37° C. for 3 or 6 days as indicated. The numbers of viable cells in proliferation assays were determined by MTT assays as described in Phatak et al., J. Immunol. 167, 3391 (2001).
Dose response curves were generated for each drug alone, and also the combinations. Median effect plots were generated for IFNs alone, sodium stibogluconate alone, and the combination. The combination index (CI) was determined and plotted vs. fraction affected (FA). Data were analyzed in both modes, mutually exclusive and mutually nonexclusive. The interaction between two mutually nonexclusive drugs is described by the Equation CI=D1/D×1+D2/D×2+D1D2/D×1D×2, where D×1 and D×2 are the doses of drug 1 and drug 2 that are required to inhibit growth×%. […] When CI<1, drugs are synergistic, when CI=1, drugs are additive, and when CI>1, drugs are antagonistic.

PRL-1 = molecular target: T5, PRL-1 (Homo sapiens, UniProt Q93096); test: In vitro PTPase assay, recombinant PRL-1; assay type: biochemical; conditions: 0.1-100 μg/ml
T5 construct: cDNAs of human PRL-1, PRL-2 and PRL-3 coding region were derived by RT-PCR from H9 cells; made in house; host or cells: DH5a bacteria (E. coli)
Description: as §1, §2

NB4 cells = test: NB4 cell differentiation (NBT reduction, CD11b); assay type: cell-based, human
Procedure: (§3) Differentiation of AML cell lines was assessed by their ability to produce superoxide as measured by reduction of NBT to formazan and by analysis of expression of CD11b surface marker by flow cytometry. For NBT reduction, each cell suspension was mixed with an equal volume of solution containing 1 mg/ml of NBT (Sigma) and 2.5 μg/ml of TPA for 30 minutes at 37° C. After incubation, cells containing the purple formazan deposits and cells devoid of NBT-reducing activity (white cells) in each sample were determined by counting 200 cells under microscope. Data is expressed as a percentage based on the following ratio: purple cells/purple+white cells. For analysis of cell surface antigens, cells were exposed to phycoerythrin (PE)-conjugated murine anti-human CD11b (DAKO Corp., Carpinteria, Calif.). Analysis of fluorescence was performed on a FACScan flow cytometer (Beckton Dickinson, Mountain View, Calif.).

HL-60 cells = test: HL-60 cell differentiation (NBT reduction); assay type: cell-based, human; conditions: GM-CSF 25 ng/ml alone, day 6
Procedure: as §3

U937 cells = test: U937 cell differentiation (NBT reduction); assay type: cell-based, human; conditions: GM-CSF 25 ng/ml alone, day 6
Procedure: as §3

T5 sequence (Q93096 whole entry): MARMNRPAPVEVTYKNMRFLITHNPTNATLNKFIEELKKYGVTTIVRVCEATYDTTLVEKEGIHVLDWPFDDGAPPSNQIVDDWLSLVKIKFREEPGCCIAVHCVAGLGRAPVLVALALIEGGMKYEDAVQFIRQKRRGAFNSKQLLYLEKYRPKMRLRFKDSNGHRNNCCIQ
T4 sequence (Q12974 whole entry): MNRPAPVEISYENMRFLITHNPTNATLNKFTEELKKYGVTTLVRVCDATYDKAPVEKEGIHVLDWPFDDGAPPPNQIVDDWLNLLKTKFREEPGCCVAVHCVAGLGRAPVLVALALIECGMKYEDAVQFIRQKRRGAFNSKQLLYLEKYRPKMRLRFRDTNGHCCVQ
T2 sequence (P29351 whole entry, the tested form may be a part): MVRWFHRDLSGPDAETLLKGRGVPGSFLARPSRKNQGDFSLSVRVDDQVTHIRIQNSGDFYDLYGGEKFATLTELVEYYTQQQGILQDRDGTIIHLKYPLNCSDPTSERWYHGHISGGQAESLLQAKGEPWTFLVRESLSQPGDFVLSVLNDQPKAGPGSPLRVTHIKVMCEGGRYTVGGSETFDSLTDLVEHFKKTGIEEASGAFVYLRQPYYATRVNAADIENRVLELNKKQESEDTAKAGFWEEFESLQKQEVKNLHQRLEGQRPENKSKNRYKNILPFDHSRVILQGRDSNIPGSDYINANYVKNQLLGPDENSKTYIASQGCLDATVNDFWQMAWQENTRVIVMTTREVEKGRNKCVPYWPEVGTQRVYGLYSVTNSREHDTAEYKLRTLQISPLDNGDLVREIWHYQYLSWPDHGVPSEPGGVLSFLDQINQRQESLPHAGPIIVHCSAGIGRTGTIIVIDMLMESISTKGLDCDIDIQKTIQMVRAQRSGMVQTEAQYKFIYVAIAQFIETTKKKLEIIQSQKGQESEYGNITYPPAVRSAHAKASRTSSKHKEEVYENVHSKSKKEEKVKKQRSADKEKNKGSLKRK
T1 sequence (O75365 whole entry): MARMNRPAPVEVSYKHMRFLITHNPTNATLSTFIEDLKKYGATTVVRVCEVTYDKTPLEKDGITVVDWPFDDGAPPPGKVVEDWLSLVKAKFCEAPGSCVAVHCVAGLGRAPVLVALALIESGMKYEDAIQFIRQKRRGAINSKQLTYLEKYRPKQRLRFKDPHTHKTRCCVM

Compound	inhibitory activity against GSTm8 (GSTm8)	remaining PRL-3 PTPase activity (PRL-3)	inhibitory activity against SHP-1 (SHP-1)	inhibition of MKP1 (MKP1)	effectiveness against PRL-2 (PRL-2)	growth inhibition of WM9 cells, single agent (WM9 cells; pentamidine 2.5-5 μg/ml, 6 days)	effect on IFN-alpha-induced growth inhibition of WM9 (WM9 cells; pentamidine, most obviously at 0.625-1.25 μg/ml)	retained PRL-1 PTPase activity (PRL-1)	effect on NB4 cell differentiation (NB4 cells; GM-CSF alone)	augmentation of sodium stibogluconate-induced NB4 differentiation (NB4 cells; GM-CSF with sodium stibogluconate)	maximal increase of NBT-positive HL-60 cells (HL-60 cells)	maximal increase of NBT-positive U937 cells (U937 cells)	inhibition at 40 µg/mL (WM9 cells; Homo sapiens, WM9, 144 h, read-out: growth inhibition of WM9 cells, single agent) [%]	effect on IFN-alpha activity in WM9 (WM9 cells; ketoconazole 40 μg/ml)	activity against WM9 cells, single agent or with IFN-alpha (WM9 cells; ketoconazole 0.625-20 μg/ml, 6 days)
N=C(N)c1ccc(OCCCCCOc2ccc(C(=N)N)cc2)cc1 [pentamidine]	no obvious inhibitory activity	20-30%	no obvious inhibitory activity	substantial inhibition	not effective	86-97%	augmented IFN-alpha-induced growth inhibition	70-80%	–	–	–	–	–	–	–
GM-CSF: recombinant human granulocyte/macrophage colony stimulating factor	–	–	–	–	–	–	–	–	no detectable effect	failed to augment	8-10%	8-10%	–	–	–
CC(=O)N1CCN(c2ccc(OCC3COC(Cn4ccnc4)(c4ccc(Cl)cc4Cl)O3)cc2)CC1 (centres unmarked) [ketoconazole]	no obvious inhibitory activity	25-40%	no obvious inhibitory activity	–	not effective	–	–	60-70%	–	–	–	–	67	minor augmenting effect	no apparent activity
